Molecular target: T1, human androgen receptor (AR) (Homo sapiens, UniProt P10275)
T1 construct: The full length human androgen receptor (AR) was derived from cDNA expressed in a baculovirus expression system; purchased Ligand Pharmaceuticals (San Diego, CA); host or cells: SF21 insect cells (baculovirus)
T1 sequence (P10275 1-920): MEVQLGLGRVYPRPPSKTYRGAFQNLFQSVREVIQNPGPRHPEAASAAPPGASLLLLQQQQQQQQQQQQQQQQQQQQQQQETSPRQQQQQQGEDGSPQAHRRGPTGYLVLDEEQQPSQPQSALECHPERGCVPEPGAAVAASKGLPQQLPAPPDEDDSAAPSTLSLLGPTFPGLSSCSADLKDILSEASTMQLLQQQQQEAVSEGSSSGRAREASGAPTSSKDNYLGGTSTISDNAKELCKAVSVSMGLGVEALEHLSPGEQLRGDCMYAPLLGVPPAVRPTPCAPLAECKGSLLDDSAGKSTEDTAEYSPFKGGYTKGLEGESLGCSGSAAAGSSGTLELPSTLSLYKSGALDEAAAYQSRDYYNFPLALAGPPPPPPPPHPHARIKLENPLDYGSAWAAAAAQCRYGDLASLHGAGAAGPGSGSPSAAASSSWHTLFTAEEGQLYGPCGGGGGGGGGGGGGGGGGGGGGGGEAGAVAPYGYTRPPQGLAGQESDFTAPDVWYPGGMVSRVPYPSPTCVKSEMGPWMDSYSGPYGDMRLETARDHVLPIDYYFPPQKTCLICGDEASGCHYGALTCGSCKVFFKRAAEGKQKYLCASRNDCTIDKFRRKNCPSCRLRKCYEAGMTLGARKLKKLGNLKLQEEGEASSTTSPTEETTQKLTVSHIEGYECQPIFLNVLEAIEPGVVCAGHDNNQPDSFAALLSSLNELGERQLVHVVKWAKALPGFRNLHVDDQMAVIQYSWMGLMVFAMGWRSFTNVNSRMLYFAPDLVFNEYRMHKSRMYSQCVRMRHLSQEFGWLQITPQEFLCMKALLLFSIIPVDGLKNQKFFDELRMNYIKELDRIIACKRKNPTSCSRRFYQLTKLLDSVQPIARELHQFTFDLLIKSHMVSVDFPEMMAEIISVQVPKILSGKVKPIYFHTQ
Assay: human androgen receptor (AR) cytosol binding assay, [3H]-dihydrotestosterone competition
Conditions: 1-2 nM [3H]-DHT, 4 °C for 18 hours; Cheng-Prusoff
Source text: For human androgen receptor (AR) cytosol binding assays, [^3H]-dihydrotestosterone (DHT) (120-140 Ci/mmol) was purchased from Amersham Life Science (Arlington Heights, IL), DHT was purchased from Sigma Chemical Co. (St. Louis, MO), CHAPS and DTT were purchased from Boehringer Mannheim GmbH (W. Germany), and all other reagents were purchased from Sigma. The full length human androgen receptor (AR) was derived from cDNA expressed in a baculovirus expression system from Ligand Pharmaceuticals (San Diego, CA). The methods concerning growth, purification, and assays of recombinant viruses followed the protocol outlined by Summers, M.D., Smith, G.E., A Manual of Methods for Baculovirus Vectors and Insect Cell Culture Procedures, Tex. Agric. Exp. Stn. [Bull], 1987, No. 155, hereby incorporated by reference. The recombinant plasmids were cotransfected into SF21 cells with wild type AcNPV DNA, and the recombinant viruses were plaque purified.
A receptor extract was prepared from the baculovirus system , and aliquots were stored at -80 °C until used. Typical protein concentrations for these extracts were between 10 and 20 mg/ml. Stock solutions of DHT or other competing compounds were prepared as 5 mM stock solutions in either 100% ethanol or DMSO and serial dilutions were carried out in 1:1 DMSO-ethanol. The assay buffer consisted of the following: 25 mM sodium phosphate, 10 mM potassium fluoride, 10 mM sodium molybdate, 10% glycerol, 1.5 mM EDTA, 2 mM DTT, 2 mM CHAPS and 1 mM PMSF, pH=7.4 at room temperature.
Receptor assays were performed with a final volume of 250 µL containing from 50-75 µg of extract protein, plus 1-2 nM [^3H]-DHT and varying concentrations of competing ligand (0-10-5 M). Assays were set up using a 96-well minitube system and incubations were carried out at 4 °C for 18 hours. Equilibrium under these conditions of buffer and temperature was achieved by 6-8 hours. Nonspecific binding was defined as that binding remaining in the presence of 1000 nM unlabeled DHT. At the end of the incubation period, 200 µL of 6.25% hydroxyapatite was added in wash buffer (binding buffer in the absence of DTT and PMSF). Specific ligand binding to receptor was determined by a hydroxyapatite-binding assay according to the protocol outlined by Wecksler, W.R., Norman, A.W., An Hydroxylapatite Batch Assay for the Quantitation of 1α, 25-Dihydroxyvitamin D3-Receptor Complexes, Anal. Biochem. 1979, 92, 314-323, hereby incorporated by reference. Hydroxyapatite absorbs the receptor-ligand complex, allowing for the separation of bound from free radiolabeled ligand. The mixture was vortexed, incubated for 10 minutes at 4 °C, centrifuged, and the supernatant was removed. The hydroxyapatite pellet was washed twice more with the wash buffer. The amount of receptor-ligand complex was determined by liquid scintillation counting of the hydroxyapatite pellet after the addition of […] EcoScint A scintillation cocktail from National Diagnostics (Atlanta, GA.).
After correcting for nonspecific binding, IC50 values were determined. […] The IC50 values were determined graphically from a log-logit plot of the data. […] Standards are included in each assay and resulting Ki values are determined by use of a modified Cheng-Prusoff equation and used to calculate Ki values for "unknown analogs" outlined by DeBlasi, A., O'Reilly, K., Motulsky, H.J., Calculating Receptor Number from Binding Experiments Using Same Compound As Radioligand and Competitor, TIPS 1989, 10, 227-229, hereby incorporated by reference.

**Q.** How did the Ki turn out when `CC(=O)OCCN(C)c1ccc(C(c2ccc(N(C)C)cc2)c2cc([N+](=O)[O-])ccc2Cl)cc1` (stereo not shown) [Example 51, 4'-dimethylamino-4"-(N-methyl-N-(2-acetoxyethyl)amino)-2-chloro-5-nitrotriphenylmethane] was run?
**A.** Its Ki is greater than 10000 nM.

**Q.** For `O=[N+]([O-])c1ccc(Cl)c(C(c2ccc(NCc3ccccc3)cc2)c2ccc(NCc3ccccc3)cc2)c1` [Example 36, 4',4" bis(N-benzylamino)-2-chloro-5-nitrotriphenylmethane], which Ki is on record?
**A.** The Ki was 3730 nM.

**Q.** For `CNc1ccc(C(c2ccc(NC)cc2)c2cc([N+](=O)[O-])ccc2Cl)cc1` [Example 23, 4',4" bis(methylamino)-2-chloro-5-nitrotriphenylmethane], which Ki is on record?
**A.** The Ki was 4260 nM.

**Q.** `CNc1ccc(C(c2ccc(N(C)CCOC(C)=O)cc2)c2cc([N+](=O)[O-])ccc2Cl)cc1` (stereo not shown) [Example 49, 4'-methylamino-4"-(N-(2-acetoxyethyl)-N-methylamino)-2-chloro-5-nitrotriphenylmethane] was tested. Which Ki did it give?
**A.** Its Ki is 1040 nM.

**Q.** `CN(C)c1ccc(C(Oc2ccccc2)c2cc([N+](=O)[O-])ccc2Cl)cc1` (stereo not shown) [Example 52, phenyl-[(4'-dimethylaminophenyl)-(2-chloro-5-nitrophenyl)methyl] ether] was tested. Which Ki did it give?
**A.** The Ki was greater than 10000 nM.

**Q.** With `CN(C)c1ccc(C(c2ccc(N(C)C)cc2)c2cc(Cl)ccc2Cl)cc1` [Example 24, 4',4" bis(dimethylamino)-2,5-dichlorotriphenylmethane] as the molecule, how does the Ki read?
**A.** The Ki was 3730 nM.

**Q.** `CC(=O)OCCN(C)c1ccc(C(c2ccc(N(C)CCOC(C)=O)cc2)c2cc([N+](=O)[O-])ccc2Cl)cc1` [Example 31, 4',4" bis(N-(2-acetoxyethyl) N-methylamino)-2-chloro-5-nitrotriphenylmethane] was tested. Which Ki did it give?
**A.** The Ki was 3520 nM.

**Q.** How did the Ki turn out when `CN(C)c1ccc(C(Sc2ccccc2)c2cc([N+](=O)[O-])ccc2Cl)cc1` (stereo not shown) [Example 54, phenyl-[(4'-dimethylaminophenyl)-(2-chloro-5-nitrophenyl)methyl]thioether] was run?
**A.** The Ki was 3730 nM.

**Q.** How did the Ki turn out when `CN(C)c1ccc(C(c2ccc(N(C)CCO)cc2)c2cc([N+](=O)[O-])ccc2Cl)cc1` (stereo not shown) [Example 42, 4'-dimethylamino-4"-(N-methyl-N-(2-hydroxyethyl)amino)-2-chloro-5-nitrotriphenylmethane] was run?
**A.** Its Ki is 2800 nM.

**Q.** With `CN(CCO)c1ccc(C(c2ccc(N(C)CCO)cc2)c2cc([N+](=O)[O-])ccc2Cl)cc1` [Example 32, 4',4" bis(N-(2-hydroxyethyl) N-methylamino)-2-chloro-5-nitrotriphenylmethane] as the molecule, how does the Ki read?
**A.** The Ki was 3520 nM.

**Q.** Which Ki does the source give for `CNc1ccc(C(c2ccc(NC)cc2)c2cc(Cl)ccc2Cl)cc1` [Example 27, 4',4" bis(methylamino)-2,5-dichlorotriphenylmethane] here?
**A.** Its Ki is 3240 nM.

**Q.** With `CN(C)c1ccc(C(c2ccc(N(C)C)cc2)c2cc([N+](=O)[O-])ccc2Cl)cc1` [Example 1, 4',4" bis(dimethylamino)-2-chloro-5-nitrotriphenylmethane] as the molecule, how does the Ki read?
**A.** Its Ki is 3730 nM.

**Q.** How did the Ki turn out when `CNc1ccc(C(c2ccc(N(C)C)cc2)c2cc([N+](=O)[O-])ccc2Cl)cc1` (stereo not shown) [Example 39, 4'-dimethylamino-4"-methylamino-2-chloro-5-nitrotriphenylmethane] was run?
**A.** Its Ki is 3730 nM.
